The term melting point denotes the temperature, or range, at which the solid turns liquid.

As for `CC(C)(CO)CCCCC(O)CCCCC(C)(C)CO` [Compound 6.1, 2,2,12,12-Tetramethyltridecane-1,7,13-triol], the melting point is 72 to 74 °C.
The same measure for `CC(C)(CCCCCC(O)CCCCCC(C)(C)CC(=O)c1cccnc1)COC(=O)c1cccnc1` (stereo not drawn) [Compound 6.37, Nicotinic acid 8-hydroxy-2,2,14,14-tetramethyl-15-nicotinoylpentadecyl ester]: 65 to 67 °C; for `CC(C)(CO)Cc1cccc(C(O)c2cccc(CC(C)(C)CO)c2)c1` [Compound 6.46, 3-(3-{Hydroxy-[3-(3-hydroxy-2,2-dimethylpropyl)-phenyl]-methyl}-phenyl)-2,2-dimethylpropan-1-ol]: 98 to 99 °C.

Source of the values: patent US20070179120A1, “HYDROXYL COMPOUNDS AND COMPOSITIONS FOR CHOLESTEROL MANAGEMENT AND RELATED USES” (ESPERION THERAPEUTICS, INC., priority 2003, published 2007).
